Experimental data from PMC3335078, “Length and Amino Acid Sequence of Peptides Substituted for the 5-HT3A Receptor M3M4 Loop May Affect Channel Expression and Desensitization” (PLoS ONE, 2012).

Key:
[1] = target: T1, 5-HT3A receptor wild-type (Mus musculus, UniProt P23979); experiment: Radioactive 5-HT binding to oocytes expressing WT 5-HT3A; settings: 150 nM [3H]5-HT + 10 µM 5-HT, 5 min room temperature, 45 s cold wash
T1 construct: unrelated to the structural/functional states accessible to a normal full-length 5-HT3A receptor; expressed in transfected cells; host or cells: Xenopus laevis oocytes injected with mRNA
Description: Assays were terminated by five washes with ice cold CFFR buffer, followed by solubilization of the oocytes individually with 200 µl 5% SDS. Total wash time was 45 s. […] All data points represent the average of at least fifteen individual oocytes derived from three separate oocyte isolations.
To determine the extent of non-specific binding, all binding experiments were performed in parallel with diethylpyrocarbonate-(DEPC)-treated-water injected oocytes or uninjected oocytes.

[2] = target: T2, 5-HT3A receptor wild-type (WT, V5-tagged) (Mus musculus, UniProt P23979); experiment: Two-electrode voltage clamp, 5-HT-induced currents in oocytes expressing wild-type 5-HT3A; type: cell-based; settings: wildtype
T2 construct: unrelated to the structural/functional states accessible to a normal full-length 5-HT3A receptor; expressed in transfected cells; host or cells: Xenopus laevis oocytes injected with mRNA
T2 sequence (P23979 24-483 isoform P23979-2 limits assumed): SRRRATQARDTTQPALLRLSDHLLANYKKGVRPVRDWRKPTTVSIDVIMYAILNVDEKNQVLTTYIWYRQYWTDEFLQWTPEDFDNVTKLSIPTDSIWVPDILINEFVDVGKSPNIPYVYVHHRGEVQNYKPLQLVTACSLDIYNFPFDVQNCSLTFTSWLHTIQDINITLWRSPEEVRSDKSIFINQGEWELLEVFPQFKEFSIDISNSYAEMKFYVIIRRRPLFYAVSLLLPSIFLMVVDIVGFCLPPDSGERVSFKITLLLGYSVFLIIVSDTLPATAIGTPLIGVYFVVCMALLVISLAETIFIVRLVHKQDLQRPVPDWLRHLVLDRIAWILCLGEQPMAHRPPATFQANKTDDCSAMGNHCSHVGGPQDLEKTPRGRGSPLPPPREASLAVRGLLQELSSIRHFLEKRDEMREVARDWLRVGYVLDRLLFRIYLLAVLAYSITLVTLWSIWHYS
Description: The mouse 5-HT3A cDNA with an N-terminal V5 epitope tag was cloned into the pXOON vector as previously described [34], and is referred to in this paper as “wild-type” (WT).
All surgery was performed under tricaine anesthesia, and all efforts were made to minimize suffering. Oocyctes were harvested from Xenopus (Nasco Science, Fort Atkinson, WI) anesthetized with 0.15% tricaine. Oocyctes were defolliculated by incubation in 2 mg ml^−1 Type 1A collagenase (Sigma-Aldrich, St. Louis, MO) in OR2 (85 mM NaCl, 2 mM KCl, 1 mM MgCl2, and 5 mM HEPES; pH adjusted to 7.5 with NaOH) for a 60 or 75 min. Oocytes were washed in OR2 and stored at 16°C in SOS medium: 100 mM NaCl, 2 mM KCl, 1 mM MgCl2, 1.8 mM CaCl2 5 mM HEPES, pH 7.5 with 100 IU ml^−1 penicillin, 100 µg ml^−1 streptomycin, and 250 ng ml^−1 amphotericin B (Invitrogen, Carlsbad, CA) and 5% horse serum (Sigma-Aldrich). 24 hrs following isolation, oocyctes were injected with 23 nl (2.3 ng) of mRNA and were kept in SOS media for 2–5 d at 16°C.
Currents were recorded under two-electrode voltage clamp from oocytes 2–5 d post-injection as described previously [37]. […] The perfusion chamber volume was 200 µl. A 3 M KCl/agar bridge connected the ground electrode to the bath. The holding potential was maintained at −60 mV. […] Salts were purchased from Fisher Scientific (Hampton, NH) or Sigma-Aldrich.
Desensitization rates were determined by fitting a single exponential decay function to the current data with Prism 4 software (GraphPad Software). Significant differences compared with wild-type were determined by a one-way ANOVA (p<0.05) using Dunnett's multiple comparison post-hoc test (p<0.05). […] One way ANOVA (P<0.05) with post hoc Dunnett's Multiple Comparison test was performed using Prism 5.0 (Graphpad software.)

## NCCc1c[nH]c2ccc(O)cc12 [5-HT, 5-hydroxytryptamine]
[1]
  Radiolabeled 5-HT bound per oocyte: 2.50±0.3 pmol per oocyte
[2]; 10 µM 5-HT
  10–90% Activation rise time: 587 ± 51 ms
[2]; 10 µM 5-HT (saturating), Xenopus oocytes, -60 mV
  Imax (peak current): 7300±700 nA
[2]; prolonged 10 µM 5-HT, Ca-free buffer
  Desensitization time constant τ: 77 ± 18 s
